Measurements as given in patent publication US10294202B2, “Pyrrolidinones as herbicides” (FMC Corporation, priority 2013, dated 2019).

What was measured:
Test in all cases: Test C pre-/postemergence herbicide test
[1] = system: cupgrass, woolly; format: in vivo, Eriochloa villosa; settings: Preemergence
Method in brief: (§1)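 Test compounds, formulated in a surfactant-containing non-phytotoxic solvent blend, are applied to seeded loam/sand soil (preemergence) and to young plants at the 1- to 4-leaf stage in peat-based medium (postemergence). Plants stay 13 to 15 days under greenhouse conditions, then are scored visually relative to controls, 0 = no effect, 100 = complete control.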

[2] = system: surinam grass; format: in vivo, Brachiaria decumbens; settings: Preemergence
Method in brief: as §1

[3] = system: bermudagrass; format: in vivo, Cynodon dactylon; settings: Preemergence
Method in brief: as §1

[4] = system: kochia; format: in vivo, Kochia scoparia; settings: Preemergence
Method in brief: as §1

[5] = system: goosegrass; format: in vivo, Eleusine indica; settings: Preemergence
Method in brief: as §1

[6] = system: bromegrass, downy; format: in vivo, Bromus tectorum; settings: Preemergence
Method in brief: as §1

[7] = system: cocklebur; format: in vivo, Xanthium strumarium; settings: Preemergence, 62 g ai/ha; scale 0 to 100
Method in brief: as §1

[8] = system: nightshade; format: in vivo, Solanum ptycanthum; settings: Preemergence
Method in brief: as §1

[9] = system: sunflower; format: in vivo, Helianthus annuus; settings: Preemergence
Method in brief: as §1

[10] = system: Russian thistle; format: in vivo, Salsola kali; settings: Preemergence
Method in brief: as §1

[11] = system: foxtail, green; format: in vivo, Setaria viridis; settings: Preemergence
Method in brief: as §1

[12] = 31 g ai/ha, scale 0 to 100 (0 no effect, 100 complete control)
[13] = 125 g ai/ha, scale 0 to 100 (0 no effect, 100 complete control)
[14] = 250 g ai/ha, scale 0 to 100 (0 no effect, 100 complete control)

SMILES: O=C1NCC(c2cccc(Br)c2)C1C(=O)Nc1cccc(F)c1F (stereo not drawn) [Compound 64]
- Cupgrass, Woolly plant response rating [1, 12]: 30
- Plant response rating, Cupgrass, Woolly ([1]; 62 g ai/ha, scale 0 to 100): 70
- Plant response rating, Cupgrass, Woolly [1, 13]: 85
- Plant response rating, Cupgrass, Woolly [1, 14]: 90
- Plant response rating, Surinam Grass ([2]; 62 g ai/ha, scale 0 to 100): 50
- Plant response rating, Surinam Grass [2, 13]: 65
- Bermudagrass plant response rating [3, 12]: 0
- Plant response rating, Bermudagrass ([3]; 62 g ai/ha, scale 0 to 100): 0
- Plant response rating, Bermudagrass [3, 13]: 25
- Plant response rating, Bermudagrass [3, 14]: 55
- Plant response rating, Kochia ([4]; 62 g ai/ha, scale 0 to 100): 0
- Plant response rating, Kochia [4, 13]: 20
- Goosegrass plant response rating [5, 12]: 20
- Plant response rating, Goosegrass ([5]; 62 g ai/ha, scale 0 to 100): 20
- Plant response rating, Goosegrass [5, 13]: 25
- Bromegrass, Downy plant response rating [6, 12]: 0
- Plant response rating, Bromegrass, Downy ([6]; 62 g ai/ha, scale 0 to 100): 0
- Plant response rating, Bromegrass, Downy [6, 13]: 0
- Plant response rating, Bromegrass, Downy [6, 14]: 50
- Plant response rating, Cocklebur [7]: 0
- Plant response rating, Nightshade ([8]; 62 g ai/ha, scale 0 to 100): 0
- Plant response rating, Nightshade [8, 13]: 0
- Plant response rating Sunflower ([9]; 62 g ai/ha, scale 0 to 100): 0
- Plant response rating Sunflower [9, 13]: 0
- Plant response rating, Russian Thistle ([10]; 62 g ai/ha, scale 0 to 100): 0
- Plant response rating, Russian Thistle [10, 13]: 0
- Foxtail, Green plant response rating [11, 12]: 70
- Plant response rating, Foxtail, Green ([11]; 62 g ai/ha, scale 0 to 100): 85
- Plant response rating, Foxtail, Green [11, 13]: 90
- Plant response rating, Foxtail, Green [11, 14]: 98
